Where two headings read alike, the source gives them in different places.
Key:
Assay in all cases: Test B pre-/postemergence plant response
Assay type in all cases: in vivo
[1] = system: green foxtail (Setaria viridis); conditions: Setaria viridis, pre-emergence; Preemergence, 62 g ai/ha; scale 0 to 100, 0 no effect, 100 complete control; read-out: Plant response rating, Foxtail, Green
Method in brief: (§1)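 Seeds sown in loam–sand blend were treated preemergence, and plants at 2–18 cm (1- to 4-leaf stage) in peat-based medium were treated postemergence; compounds were formulated in non-phytotoxic solvent with surfactant. After 13–15 days in greenhouse, response was visually rated against controls, 0 (no effect) to 100 (complete control).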

[2] = system: kochia (Kochia scoparia); conditions: Postemergence
Method in brief: as §1

[3] = system: lambsquarters (Chenopodium album); conditions: for pest or weed control at 62 g/ha: 62 g ai/ha
Method in brief: as §1

[4] = system: large crabgrass (Digitaria sanguinalis); conditions: for pest or weed control at 31 g/ha: 31 g ai/ha, scale 0 to 100 (0 no effect, 100 complete control); for pest or weed control at 62 g/ha: 62 g ai/ha
Method in brief: as §1

[5] = system: pigweed (Amaranthus retroflexus)
Method in brief: as §1

[6] = system: ragweed (common ragweed, Ambrosia elatior)
Method in brief: as §1

[7] = system: soybean (Glycine max)
Method in brief: as §1

[8] = system: velvetleaf (Abutilon theophrasti)
Method in brief: as §1

[9] = system: wild oat (Avena fatua)
Method in brief: as §1

[10] = system: yellow nutsedge (Cyperus esculentus)
Method in brief: as §1

[11] = Postemergence, 250 g ai/ha, scale 0 to 100
[12] = Preemergence, 125 g ai/ha, 0 to 100 scale

Cc1c(F)cccc1-n1c(-c2ccccc2)ncc(C(=O)C2=C(O)CCCC2=O)c1=O [Compound 47, 3-(3-fluoro-2-methylphenyl)-5-[(2-hydroxy-6-oxo-1-cyclohexen-1-yl)carbonyl]-2-phenyl-4(3H)-pyrimidinone] was tested, and the pest or weed control at 62 g/ha [1] was 80%, the pest or weed control at 62 g/ha ([2]; Bassia scoparia, post-emergence, 62 g ai/ha, scale 0 (no effect) to 100 (complete control), 13 to 15 days, read-out: Plant response rating, Kochia) was 95% and the pest or weed control at 125 g/ha ([2]; Bassia scoparia, post-emergence, 125 g ai/ha, visual rating after 13 to 15 days, scale 0 (no effect) to 100 (complete control)) was 98%. For the same molecule, the “Kochia plant response rating” value ([2]; 250 g ai/ha, scale 0 to 100) was 100, the pest or weed control at 62 g/ha ([3]; Chenopodium album, post-emergence, Postemergence, scale 0 (no effect) to 100 (complete control), 13 to 15 days, read-out: Plant response rating, Lambsquarters) was 98% and the pest or weed control at 125 g/ha ([3]; Chenopodium album, post-emergence, Postemergence, 125 g ai/ha, visual rating after 13 to 15 days, scale 0 (no effect) to 100 (complete control)) was 98%. The pest or weed control at 250 g/ha ([3]; Chenopodium album, pre-emergence, 250 g ai/ha, Preemergence, 0 to 100 scale, read-out: Plant response rating, Lambsquarters) was 100%, the pest or weed control at 31 g/ha ([3]; Chenopodium album, pre-emergence, Preemergence, 31 g ai/ha, scale 0 to 100 (0 no effect, 100 complete control), read-out: Plant response rating, Lambsquarters) was 100% and the pest or weed control at 62 g/ha ([3]; Chenopodium album, pre-emergence, Preemergence, scale 0 to 100, 0 no effect, 100 complete control, read-out: Plant response rating, Lambsquarters) was 100%. The “Lambsquarters plant response rating” value [3, 11] was 100, the “Lambsquarters plant response rating” value [3, 12] was 100 and the pest or weed control at 31 g/ha ([4]; Digitaria sanguinalis, post-emergence, Postemergence, read-out: Plant response rating, Crabgrass, Large) was 85%. The pest or weed control at 62 g/ha ([4]; Digitaria sanguinalis, post-emergence, Postemergence, scale 0 (no effect) to 100 (complete control), 13 to 15 days, read-out: Plant response rating, Crabgrass, Large) was 85%, the pest or weed control at 125 g/ha ([4]; Digitaria sanguinalis, post-emergence, Postemergence, 125 g ai/ha, visual rating after 13 to 15 days, scale 0 (no effect) to 100 (complete control)) was 90% and the pest or weed control at 250 g/ha ([4]; Digitaria sanguinalis, pre-emergence, 250 g ai/ha, Preemergence, 0 to 100 scale, read-out: Plant response rating, Crabgrass, Large) was 100%. The pest or weed control at 31 g/ha ([4]; Digitaria sanguinalis, pre-emergence, Preemergence, read-out: Plant response rating, Crabgrass, Large) was 75%, the pest or weed control at 62 g/ha ([4]; Digitaria sanguinalis, pre-emergence, Preemergence, scale 0 to 100, 0 no effect, 100 complete control, read-out: Plant response rating, Crabgrass, Large) was 95% and the “Crabgrass, Large plant response rating” value [4, 11] was 100. The “Crabgrass, Large plant response rating” value [4, 12] was 100, the pest or weed control at 62 g/ha ([5]; Amaranthus retroflexus, post-emergence, Postemergence, 62 g ai/ha, scale 0 (no effect) to 100 (complete control), 13 to 15 days, read-out: Plant response rating, Pigweed) was 98% and the pest or weed control at 125 g/ha ([5]; Amaranthus retroflexus, post-emergence, Postemergence, 125 g ai/ha, visual rating after 13 to 15 days, scale 0 (no effect) to 100 (complete control)) was 100%. The pest or weed control at 250 g/ha ([5]; Amaranthus retroflexus, pre-emergence, 250 g ai/ha, Preemergence, 0 to 100 scale, read-out: Plant response rating, Pigweed) was 100%, the pest or weed control at 31 g/ha ([5]; Amaranthus retroflexus, pre-emergence, Preemergence, 31 g ai/ha, scale 0 to 100 (0 no effect, 100 complete control), read-out: Plant response rating, Pigweed) was 98% and the “Pigweed plant response rating” value [5, 12] was 100. It also gave a pest or weed control at 62 g/ha ([6]; Ambrosia artemisiifolia, post-emergence, 360 h, Postemergence, 62 g ai/ha, scale 0 (no effect) to 100 (complete control), 13 to 15 days, read-out: Plant response rating, Ragweed) of 90%, a pest or weed control at 125 g/ha ([6]; Ambrosia artemisiifolia, post-emergence, 360 h, Postemergence, 125 g ai/ha, visual rating after 13 to 15 days, scale 0 (no effect) to 100 (complete control)) of 95% and a pest or weed control at 250 g/ha ([6]; Ambrosia artemisiifolia, pre-emergence, 360 h, 250 g ai/ha, Preemergence, 0 to 100 scale, read-out: Plant response rating, Ragweed) of 95%. For the same molecule, the pest or weed control at 31 g/ha ([6]; Ambrosia artemisiifolia, pre-emergence, 360 h, Preemergence, 31 g ai/ha, scale 0 to 100 (0 no effect, 100 complete control), read-out: Plant response rating, Ragweed) was 45%, the “Ragweed plant response rating” value [6, 12] was 90 and the plant injury at 62 g/ha ([7]; Glycine max, post-emergence, Postemergence, 62 g ai/ha, scale 0 (no effect) to 100 (complete control), 13 to 15 days, read-out: Plant response rating, Soybean) was 95%. For the same molecule, the plant injury at 125 g/ha ([7]; Glycine max, post-emergence, Postemergence, 125 g ai/ha, visual rating after 13 to 15 days, scale 0 (no effect) to 100 (complete control)) was 98%, the plant injury at 250 g/ha ([7]; Glycine max, pre-emergence, 250 g ai/ha, Preemergence, 0 to 100 scale, read-out: Plant response rating, Soybean) was 0% and the plant injury at 31 g/ha ([7]; Glycine max, pre-emergence, Preemergence, 31 g ai/ha, scale 0 to 100 (0 no effect, 100 complete control), read-out: Plant response rating, Soybean) was 0%. For the same molecule, the “Soybean plant response rating” value [7, 12] was 0, the pest or weed control at 62 g/ha ([8]; Abutilon theophrasti, post-emergence, 360 h, Postemergence, 62 g ai/ha, scale 0 (no effect) to 100 (complete control), 13 to 15 days, read-out: Plant response rating, Velvetleaf) was 85% and the pest or weed control at 125 g/ha ([8]; Abutilon theophrasti, post-emergence, 360 h, Postemergence, 125 g ai/ha, visual rating after 13 to 15 days, scale 0 (no effect) to 100 (complete control)) was 98%. For the same molecule, the pest or weed control at 250 g/ha ([8]; Abutilon theophrasti, pre-emergence, 360 h, 250 g ai/ha, Preemergence, 0 to 100 scale, read-out: Plant response rating, Velvetleaf) was 100%, the pest or weed control at 31 g/ha ([8]; Abutilon theophrasti, pre-emergence, 360 h, Preemergence, 31 g ai/ha, scale 0 to 100 (0 no effect, 100 complete control), read-out: Plant response rating, Velvetleaf) was 80% and the “Velvetleaf plant response rating” value [8, 12] was 90. The pest or weed control at 62 g/ha ([9]; Avena fatua, post-emergence, Postemergence, 62 g ai/ha, scale 0 (no effect) to 100 (complete control), 13 to 15 days, read-out: Plant response rating, Oat, Wild) was 60%, the pest or weed control at 125 g/ha ([9]; Avena fatua, post-emergence, Postemergence, 125 g ai/ha, visual rating after 13 to 15 days, scale 0 (no effect) to 100 (complete control)) was 60% and the pest or weed control at 250 g/ha ([9]; Avena fatua, pre-emergence, 250 g ai/ha, Preemergence, 0 to 100 scale, read-out: Plant response rating, Oat, Wild) was 10%. For the same molecule, the pest or weed control at 31 g/ha ([9]; Avena fatua, pre-emergence, Preemergence, 31 g ai/ha, scale 0 to 100 (0 no effect, 100 complete control), read-out: Plant response rating, Oat, Wild) was 0%, the “Oat, Wild plant response rating” value [9, 12] was 0 and the pest or weed control at 62 g/ha ([10]; Cyperus, post-emergence, Postemergence, 62 g ai/ha, scale 0 (no effect) to 100 (complete control), 13 to 15 days, read-out: Plant response rating, Nutsedge, Yellow) was 65%. The pest or weed control at 125 g/ha ([10]; Cyperus, post-emergence, Postemergence, 125 g ai/ha, visual rating after 13 to 15 days, scale 0 (no effect) to 100 (complete control)) was 70%, the pest or weed control at 250 g/ha ([10]; Cyperus, pre-emergence, 250 g ai/ha, Preemergence, 0 to 100 scale, read-out: Plant response rating, Nutsedge, Yellow) was 90% and the pest or weed control at 31 g/ha ([10]; Cyperus, pre-emergence, Preemergence, 31 g ai/ha, scale 0 to 100 (0 no effect, 100 complete control), read-out: Plant response rating, Nutsedge, Yellow) was 45%. For the same molecule, the “Nutsedge, Yellow plant response rating” value [10, 12] was 80.

— US8952024B2, “Herbicidal pyrimidone derivatives” (E I du Pont de Nemours and Company, priority 2009, dated 2015)
